Results: US11458189B2, “Cytoprotective drugs” (BALMES TRANSPLANTATION, priority 2017, dated 2022)
Starred links: 1 amine or outer side, 2 acyl side, 3 side chain; linkers in the order of their positions; H or OH if unused. Positions of bridges follow the written chain, without caps; N, C: chain ends. Non-standard residues stand in square brackets, D forms with d. Residues, ends and D or L forms follow the SMILES beside them. *: point of attachment. hTyr(3S-OH,4S-OH,3'-OSO3H) = N[C@H](C(=O)O)[C@H](O)[C@@H](O)c1ccc(O)c(OS(=O)(=O)O)c1; Orn(4R-OH,5R-OH) = O=C([C@H](C[C@@H](O)[C@@H](O)N[*:3])N[*:1])[*:2]; Pro(3S-OH,4S-Me) = C[C@H]1CN[C@H](C(=O)O)[C@H]1O; X1 = CCCCCOc1ccc(-c2cc(-c3ccc(C(=O)*)cc3)no2)cc1; Gln(3R-OH) = NC(=O)C[C@@H](O)[C@H](N)C(=O)O; Hyp = O=C(O)[C@@H]1C[C@@H](O)CN1

System: Rat Primary Kidney Glomerular Endothelial cells
Assay: Oxygen and glucose deprivation followed by replenishment, cell survival (calcein AM), rat glomerular endothelial cells;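 for Survival rate (%): 100% is hypoxia control with glucose and 0% is untreated OGD control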
Type: cell-based
Description: Anidulafungin and micafungin were tested on Human Renal Glomerular Endothelial Cells (HRGEC, Innoprot P10665), on Human Renal Proximal Tubular Epithelial Cells (HRPTEpiC, Innoprot P10662), on Human Astrocytes (HA, caltag SC-1800), on Human Cardiac Microvascular Endothelial Cells (HCMEC, Caltag SC-6000), on Human Hepatic Sinusoidal Endothelial Cells (HHSEC, Caltag SC-5000), on Rat Primary Kidney Glomerular Endothelial cells (Cellbiologics, RN-6014G) and on Bovine Brain Microvascular Endothelial Cells (BBMEC, Caltag SC-B100).
In a first phase, these isolated, purified and cryopreserved cells are thawed and multiplied according to the supplier's recommendations in T75 or T175 flasks pre-coated with 2 μg of fibronectin/[…] (CORNING) for HRGEC, HCMEC, HHSEC and BBMEC, or 2 μg poly-L-lysin/cm^2 (Caltag SC-0403) for HRPTEpiC and HA, or 15 mL/flask 175 cm^2 gelatin-based solution (Cellbiologics) in the presence of endothelial cell supplemented growth medium ECM (P60104, INNOPROT, Caltag, SC-1001) for HRGEC, HCMEC, HHSEC, RPKGEC or BBMEC, or astrocyte cell supplemented growth medium AM (Caltag SC-1801) for HA or epithelial cell supplemented growth medium EpiCM (P60106, INNOPROT) for HRPTEpiC, at 37° C. under 5% CO2 and saturated humidity until their confluency. They are then harvested by trypsinization according to the method described by the supplier for exactly 5 minutes and then reseeded in new flasks a maximum of three times.
To carry out the oxygen and glucose deprivation test followed by their replenishment, the cells will be seeded in 96-well black plates with transparent flat bottom (GREINER). Once a sufficient number of cells has been obtained to allow seeding of 2000 to 15000 cells per well of 96-well plates depending on the cell type, the cells are seeded in these 96-well plates previously coated with an extracellular matrix as listed above for the flasks. The cells are cultured for 5 to 8 days according to the cell type, in the presence of the same growth medium as in the flask as described above except for HRGEC and HRPTEpiC for which DMEM (DUTSCHER) with 1 g/L of supplemented glucose is used, at 37° C. under 5% CO2 and saturated humidity to obtain confluency.
On the first day of oxygen and glucose deprivation, (5th, 6th, 7th or 8th day of culture), the culture conditions are drastically changed. The medium of all plates is removed and replaced by DMEM (DUTSCHER) medium without glucose and supplemented only with 1% penicillin-streptomycin (DUTSCHER). Anidulafungin or micafungin dissolved in dimethyl sulfoxide (DMSO) is then added to each well at the desired concentration, resulting in a maximum of 1% DMSO, and the plates are placed under hypoxia at <1% 02 and 5% CO2 at 37° C. for 24 hours of culture. Each compound was tested in a concentration range.
After 24 hours, the growth medium is changed and replaced by a richer medium, DMEM (DUTSCHER) at 1 g/L glucose and 2% FBS (INNOPROT) and 1% penicillin-streptomycin (DUTSCHER). These media will have been pre-equilibrated at 37° C. in advance. The cells are then returned to culture at 37° C. under 20% 02 and 5% CO2 for 22h.
After 22 hours of reoxygenation, the potential protective effect of anidulafungin or micafungin is measured by a cell viability test using calcein AM (CORNING), which is a dye substrate. The calcein AM can easily cross the cell membrane of the viable cells. The AM ester groups mask the part of the molecule that chelates calcium. Once inside the cells, the (non-fluorescent) calcein AM is hydrolyzed to (fluorescent) calcein by endogenous esterases. The resulting calcein molecule binds to calcium inside the cell and remains trapped inside the cell. These molecules emit strong green fluorescence when subjected to […] of a particular wavelength (495 nm). Since dead cells lack esterase activity, only living cells are labelled.
This cell viability test is performed in two steps. […]

With `CCCCCOc1ccc(-c2cc(-c3ccc(C(=O)N[C@H]4C[C@@H](O)[C@@H](O)NC(=O)[C@@H]5[C@@H](O)[C@@H](C)CN5C(=O)[C@H]([C@H](O)CC(N)=O)NC(=O)[C@H]([C@H](O)[C@@H](O)c5ccc(O)c(OS(=O)(=O)O)c5)NC(=O)[C@@H]5C[C@@H](O)CN5C(=O)[C@H]([C@@H](C)O)NC4=O)cc3)no2)cc1` [Micafungin, {5-[(1S,2S)-2-[(3S,6S,9S,11R,15S,18S,20R,21R,24S,25S,26S)-3-[(1R)-2-carbamoyl-1-hydroxyethyl]-11,20,21,25-tetrahydroxy-15-[(1R)-1-hydroxyethyl]-26-methyl-2,5,8,14,17,23-hexaoxo-18-[(4-{5-[4-(pentyloxy)phenyl]-1,2-oxazol-3-yl}benzene)amido]-1,4,7,13,16,22-hexaazatricyclo[22.3.0.0]heptacosan-6-yl]-1,2-dihydroxyethyl]-2-hydroxyphenyl}oxidanesulfonic acid] (X1-[Orn(4R-OH,5R-OH)]T[Hyp][hTyr(3S-OH,4S-OH,3'-OSO3H)][Gln(3R-OH)][Pro(3S-OH,4S-Me)]; lactam 1-C) the “Globalfluo assay 1” value ([Micafungin] log μM 0) was 5417339 arbitrary units, the “Globalfluo assay 2” value ([Micafungin] log μM 0) was 3464807 arbitrary units and the “Globalfluo assay 3” value ([Micafungin] log μM 0) was 4867657 arbitrary units. For the same compound, the Mean globalfluo ([Micafungin] log μM 0) was 4583268 arbitrary units, the “Survival rate (%)” value ([Micafungin] log μM 0) was 3% and the “Globalfluo assay 1” value ([Micafungin] log μM 0.1760913) was 8740776 arbitrary units. For the same compound, the “Globalfluo assay 2” value ([Micafungin] log μM 0.1760913) was 7981119 arbitrary units, the “Globalfluo assay 3” value ([Micafungin] log μM 0.1760913) was 5239211 arbitrary units and the Mean globalfluo ([Micafungin] log μM 0.1760913) was 7320369 arbitrary units. The “Survival rate (%)” value ([Micafungin] log μM 0.1760913) was 14%, the “Globalfluo assay 1” value ([Micafungin] log μM 0.30103) was 3351615 arbitrary units and the “Globalfluo assay 2” value ([Micafungin] log μM 0.30103) was 4221516 arbitrary units. The “Globalfluo assay 3” value ([Micafungin] log μM 0.30103) was 4567106 arbitrary units, the Mean globalfluo ([Micafungin] log μM 0.30103) was 4046746 arbitrary units and the “Survival rate (%)” value ([Micafungin] log μM 0.30103) was 0%. For the same compound, the “Globalfluo assay 1” value ([Micafungin] log μM 0.39794) was 5495171 arbitrary units, the “Globalfluo assay 2” value ([Micafungin] log μM 0.39794) was 5446233 arbitrary units and the “Globalfluo assay 3” value ([Micafungin] log μM 0.39794) was 3835973 arbitrary units. The Mean globalfluo ([Micafungin] log μM 0.39794) was 4925792 arbitrary units, the “Survival rate (%)” value ([Micafungin] log μM 0.39794) was 4% and the “Globalfluo assay 1” value ([Micafungin] log μM 0.4771213) was 4782175 arbitrary units. The “Globalfluo assay 2” value ([Micafungin] log μM 0.4771213) was 7854686 arbitrary units, the “Globalfluo assay 3” value ([Micafungin] log μM 0.4771213) was 4782283 arbitrary units and the Mean globalfluo ([Micafungin] log μM 0.4771213) was 5806381 arbitrary units. The “Survival rate (%)” value ([Micafungin] log μM 0.4771213) was 8%, the “Globalfluo assay 1” value ([Micafungin] log μM 0.60206) was 12878800 arbitrary units and the “Globalfluo assay 2” value ([Micafungin] log μM 0.60206) was 13369330 arbitrary units. For the same compound, the “Globalfluo assay 3” value ([Micafungin] log μM 0.60206) was 12813230 arbitrary units, the Mean globalfluo ([Micafungin] log μM 0.60206) was 13020453 arbitrary units and the “Survival rate (%)” value ([Micafungin] log μM 0.60206) was 37%. For the same compound, the “Globalfluo assay 1” value ([Micafungin] log μM 0.69897) was 14177330 arbitrary units, the “Globalfluo assay 2” value ([Micafungin] log μM 0.69897) was 11602990 arbitrary units and the “Globalfluo assay 3” value ([Micafungin] log μM 0.69897) was 9423392 arbitrary units. For the same compound, the Mean globalfluo ([Micafungin] log μM 0.69897) was 11734571 arbitrary units, the “Survival rate (%)” value ([Micafungin] log μM 0.69897) was 31% and the “Globalfluo assay 1” value ([Micafungin] log μM 0.7781513) was 5553126 arbitrary units. For the same compound, the “Globalfluo assay 2” value ([Micafungin] log μM 0.7781513) was 6638483 arbitrary units, the “Globalfluo assay 3” value ([Micafungin] log μM 0.7781513) was 7505823 arbitrary units and the Mean globalfluo ([Micafungin] log μM 0.7781513) was 6565811 arbitrary units. For the same compound, the “Survival rate (%)” value ([Micafungin] log μM 0.7781513) was 11%, the “Globalfluo assay 1” value ([Micafungin] log μM 0.845098) was 7968558 arbitrary units and the “Globalfluo assay 2” value ([Micafungin] log μM 0.845098) was 13328410 arbitrary units. For the same compound, the “Globalfluo assay 3” value ([Micafungin] log μM 0.845098) was 4864200 arbitrary units, the Mean globalfluo ([Micafungin] log μM 0.845098) was 8720389 arbitrary units and the “Survival rate (%)” value ([Micafungin] log μM 0.845098) was 19%. The “Globalfluo assay 1” value ([Micafungin] log μM 0.90309) was 16467230 arbitrary units, the “Globalfluo assay 2” value ([Micafungin] log μM 0.90309) was 5461253 arbitrary units and the “Globalfluo assay 3” value ([Micafungin] log μM 0.90309) was 9297072 arbitrary units. The Mean globalfluo ([Micafungin] log μM 0.90309) was 10408518 arbitrary units, the “Survival rate (%)” value ([Micafungin] log μM 0.90309) was 26% and the “Globalfluo assay 1” value ([Micafungin] log μM 0.9542425) was 17001920 arbitrary units. For the same compound, the “Globalfluo assay 2” value ([Micafungin] log μM 0.9542425) was 15398170 arbitrary units, the “Globalfluo assay 3” value ([Micafungin] log μM 0.9542425) was 11994410 arbitrary units and the Mean globalfluo ([Micafungin] log μM 0.9542425) was 14798167 arbitrary units. For the same compound, the “Survival rate (%)” value ([Micafungin] log μM 0.9542425) was 44%, the “Globalfluo assay 1” value ([Micafungin] log μM 1) was 24112850 arbitrary units and the “Globalfluo assay 2” value ([Micafungin] log μM 1) was 13345620 arbitrary units. For the same compound, the “Globalfluo assay 3” value ([Micafungin] log μM 1) was 20572260 arbitrary units, the Mean globalfluo ([Micafungin] log μM 1) was 19343577 arbitrary units and the “Survival rate (%)” value ([Micafungin] log μM 1) was 62%. The “Globalfluo assay 1” value ([Micafungin] log μM 1.041393) was 8422700 arbitrary units, the “Globalfluo assay 2” value ([Micafungin] log μM 1.041393) was 12678250 arbitrary units and the “Globalfluo assay 3” value ([Micafungin] log μM 1.041393) was 11578770 arbitrary units. The Mean globalfluo ([Micafungin] log μM 1.041393) was 10893240 arbitrary units, the “Survival rate (%)” value ([Micafungin] log μM 1.041393) was 28% and the “Globalfluo assay 1” value ([Micafungin] log μM 1.079181) was 11147190 arbitrary units. For the same compound, the “Globalfluo assay 2” value ([Micafungin] log μM 1.079181) was 19591720 arbitrary units, the “Globalfluo assay 3” value ([Micafungin] log μM 1.079181) was 15002320 arbitrary units and the Mean globalfluo ([Micafungin] log μM 1.079181) was 15247077 arbitrary units. The “Survival rate (%)” value ([Micafungin] log μM 1.079181) was 46%.
